Test results published in US12274679B2, “Substituted alkylphenols as HCN1 antagonists” (Cornell University, priority 2018, dated 2025).
Entries after “also recorded” stand apart in the source; their conditions may differ. One block for each molecule: values may come before it.

Tests used:
[1] = biological target: T1, HCN1 channels (Mus musculus, UniProt O88704); test: Two electrode voltage clamp of HCN1 channels expressed in Xenopus oocytes (shift in V1/2); type: cell-based; details: for potency as HCN1 inverse agonist compared with propofol: relative to propofol (2,6-di-iso-propylphenol); for offset of the 2,6-DTBP Hill fit of the V1/2 shift: right shift of the concentration-response relative to 2,6-DTBP, HCN1; for efficacy apparent in the concentration response (Hill fit): ΔV1/2 of HCN1, 2,6 di-alkylbenzene analogues; for inhibition of HCN1 channel gating: 20 min pre-incubation, 20 mM HPβCD + DMSO, compared with free 2,6-DTBP
T1 sequence (O88704 74-390 limits assumed): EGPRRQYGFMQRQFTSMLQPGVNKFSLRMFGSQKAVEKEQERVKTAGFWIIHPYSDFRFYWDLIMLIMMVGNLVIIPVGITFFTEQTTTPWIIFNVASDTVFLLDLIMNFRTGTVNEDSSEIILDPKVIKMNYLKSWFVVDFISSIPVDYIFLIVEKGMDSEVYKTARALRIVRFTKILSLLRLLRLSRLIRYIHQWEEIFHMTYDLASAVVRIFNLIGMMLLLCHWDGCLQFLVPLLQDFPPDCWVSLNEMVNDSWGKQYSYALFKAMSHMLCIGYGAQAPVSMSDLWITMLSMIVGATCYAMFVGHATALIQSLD

[2] = system: HCN1 vs. HCN2-4; test: Effect on V1/2 of HCN1-4 channels (isoform selectivity); type: cell-based
[3] = system: chronic constriction injury model of peripheral neuropathic pain; details: bolus administration; cited from earlier work
[4] = system: normal nociception, locomotor activity, motor coordination, muscle strength; details: anti-hyperalgesic dose, cited from earlier work
[5] = system: mechanical and thermal hyperalgesia after nerve ligation; test: Nerve ligation model: paw withdrawal probability and hindpaw withdrawal latency after cumulative i.p. dosing
[6] = Solubilisation in DMSO and dispersion into aqueous buffer; type: physicochemical
[7] = Whole blood concentration after oral gavage, LC-MS/MS; type: in vivo; details: rats, oral gavage in peanut oil, 0.58 mmole/kg, over 30 hours
Description: FIG. 29 is a graph showing the concentration of BP4L-18:1:1 in whole blood after administration to rats. Eight adult rats were gavaged with either 0.5 mL of peanut oil (n=4) or 0.5 mL of peanut oil containing 0.58 mmole/kg BP4L-18:1:1 (n=4). Blood samples were obtained at the indicated times. Following extraction using equi-volumes of acetonitrile, precipitation and filtration, blood concentrations of BP4L-18:1:1 were determined using LC-MS/MS. Dotted black lines indicate the concentrations of BP4L-18:1:1 for individual animals that received drug, the solid black line indicates the mean±SEM for the plus-drug cohort. Dotted and solid grey lines are, respectively, the concentrations of BP4L-18:1:1 detected in individual peanut oil-alone animals and the mean±SEM thereof. Grey lines superimpose and are indistinguishable from the time axis.
LCMS/MS was performed on an Agilent 1290 Infinity II UPLC system and Agilent 6495 Triple Quadrupole mass spectrometer. […] Quantitation was performed using multiple reaction monitoring in positive electrospray ionization mode using the transition 517.4→233.1 and a collision energy of 42. […]
Pharmacokinetic properties of exemplary compound BP4L-18:1:1 (compound 6) were evaluated in rats (FIG. 29). In particular, concentration of BP4L-18:1:1 in whole blood samples were determined over the course of 30 hours after oral administration.

[8] = system: animal models of neuropathic pain; details: in vivo; cited from earlier work
[9] = simultaneous fit, absence and presence of 3 μM 2,6-DTBP

SMILES: CCC(C)c1ccc(O)c(C(C)CC)c1 (stereo not drawn) [2,4-DSBP, 2,4-di-sec-butylphenol]
potency as HCN1 inverse agonist compared with propofol [1]: less potent
offset of the 2,6-DTBP Hill fit of the V1/2 shift [1]: 23 fold

potency as HCN1 inverse agonist compared with propofol [1]: more potent
offset of the 2,6-DTBP Hill fit of the V1/2 shift [1]: 2 fold
SMILES: CC(C)(C)c1ccc(O)c(C(C)(C)C)c1 [2,4-DTBP, 2,4-di-tert-butylphenol]

SMILES: CCc1cccc(CC)c1O [2,6-DEP]
efficacy apparent in the concentration response (Hill fit) [1]: partial

SMILES: CC(C)C1CCCC(C(C)C)C1O (stereo not drawn) [2,6-DIPCH]
efficacy apparent in the concentration response (Hill fit) [1]: partial

SMILES: CC(C)c1cccc(C(C)C)c1O [2,6-DIPP, 2,6-di-iso-propylphenol]
efficacy apparent in the concentration response (Hill fit) [1]: full

SMILES: CCC(C)c1cccc(C(C)CC)c1O (stereo not drawn) [2,6-DSBP, 2,6-di-sec-butylphenol]
EC50 [1]: 370 µM
potency as HCN1 inverse agonist compared with propofol [1]: less potent
offset of the 2,6-DTBP Hill fit of the V1/2 shift [1]: 15 fold
JcI (association constant, common site model N=4) [1, 9]: 3,696±2,948
JoI (association constant, common site model N=4) [1, 9]: 881±1,801
inverse agonist potency and efficacy ([1]; ΔV1/2 in absence and presence of 3 μM 2,6-DTBP): low potency, high efficacy, inverse agonist
efficacy apparent in the concentration response (Hill fit) [1]: partial

SMILES: CC(C)(C)C1CCCC(C(C)(C)C)C1O (stereo not drawn) [2,6-DTBCH]
efficacy apparent in the concentration response (Hill fit) [1]: partial

potency as HCN1 inverse agonist compared with propofol [1]: more potent
efficacy apparent in the concentration response (Hill fit) [1]: full
SMILES: CC(C)(C)c1cccc(C(C)(C)C)c1O [2,6-DTBP, 2,6-di-tert-butylphenol]
selectivity for HCN1 vs. HCN2-4 [2]: retains propofol's selectivity for HCN1 vs. HCN2-4
reversal of mechanical hypersensitivity [3]: ~45%
reversal of thermal hypersensitivity [3]: complete reversal
normal nociception (pin prick test) [4]: does not disrupt normal nociception
locomotor activity, motor coordination and muscle strength ([4]; open field, rotarod, horizontal wire): nor does it perturb
mechanical and thermal hyperalgesia with respect to mechanical and thermal nociception [5]: Selectively Suppresses Mechanical and Thermal Hyperalgesia
thermal hyperalgesia (HPWL) ([5]; heat source intensity 15%): ameliorates thermal hyperalgesia
thermal nociception (HPWL) ([5]; heat source intensity 30%): without overt effect

SMILES: CC(C)c1cc(N)cc(C(C)C)c1O [4-AP]
HCN1 antagonism by 4-substituted 2,6-DIPPs [1]: effective

SMILES: CC(C)c1cc(C(C)(C)C)cc(C(C)C)c1O [4-TBP]
HCN1 antagonism by 4-substituted 2,6-DIPPs [1]: fully effective

SMILES: CC(C)c1cc([N+](C)(C)C)cc(C(C)C)c1O [4-TMAP]
HCN1 antagonism by 4-substituted 2,6-DIPPs [1]: ineffective

dispersion into an aqueous buffer [6]: reasonably easy to disperse
SMILES: CC(Cl)CCCCCCCCC(=O)c1cc(C(C)(C)C)c(O)c(C(C)(C)C)c1 (stereo not drawn) [BP4C-11:0:1]
HCN1 antagonism of tethered, unanchored 2,6-DTBP ([1]; 10 and 100 μM, applied from the outside): 4-adduct tolerance is retained

inhibition of HCN1 channel gating [1]: largely ineffective
dispersion into an aqueous buffer [6]: reasonably easy to disperse
SMILES: CC(C)(C)c1cc(C(=O)CCCCCCCCC(O)CO)cc(C(C)(C)C)c1O (stereo not drawn) [BP4L-10:0:1]

absorption / bioavailability from whole blood concentration [7]: absorbed demonstrating bioavailability
SMILES: CC(C)(C)c1cc(C(=O)CCCCCCCC/C=C/CCCCCCC(O)CO)cc(C(C)(C)C)c1O (stereo not drawn) [BP4L-18:1:1, (E)-1-(3,5-di-tert-butyl-4-hydroxyphenyl)-18,19-dihydroxynonadec-10-en-1-one]
inhibition of HCN1 channel gating [1]: concentration-dependent; also recorded: effectively inhibits channel gating with a potency and efficacy indistinguishable from free 2,6-DT BP

SMILES: CCN(c1ccccc1)c1cc(=NC)n(C)c(C)n1.Cl [ZD7288]
anti-hyperalgesia [8]: significant anti-hyperalgesia

SMILES: COc1cc2c(cc1OC)CC(=O)N(CCCN(C)C[C@H]1Cc3cc(OC)c(OC)cc31)CC2 [ivabradine]
anti-hyperalgesia [8]: significant anti-hyperalgesia
